Source: patent publication US9233964B2, “Sulfamide piperazine derivatives as protein tyrosine kinase inhibitors and pharmaceutical use therof” (LEO PHARMA A/S, priority 2011, dated 2016)

Assays:
Format in all cases: biochemical
JAK1 = biological target: T1, JAK1 (Homo sapiens, UniProt P23458); experiment: JAK kinase assay (HTRF, phosphorylation of synthetic peptide), JAK1; details: catalytic domain, ATP at Km (7 μM); read-out: JAK1 kinase inhibitory activity (EC50)
T1 construct: JAK1 (aa 850-1154) and TYK2 (aa 871-1187) are expressed with an N-terminally fused GST-tag; GST (N); purchased Carna Biosciences, Inc; host or cells: baculovirus expression system
T1 sequence (P23458 850-1154): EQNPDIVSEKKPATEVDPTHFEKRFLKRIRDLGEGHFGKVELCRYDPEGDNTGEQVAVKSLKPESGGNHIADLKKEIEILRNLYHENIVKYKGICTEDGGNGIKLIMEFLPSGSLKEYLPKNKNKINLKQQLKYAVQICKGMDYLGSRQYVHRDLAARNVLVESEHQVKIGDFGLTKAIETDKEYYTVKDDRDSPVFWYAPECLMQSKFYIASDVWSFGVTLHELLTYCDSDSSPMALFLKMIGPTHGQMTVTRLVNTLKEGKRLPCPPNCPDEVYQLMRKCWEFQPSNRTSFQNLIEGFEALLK
In short: (§1)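 Catalytic-domain human JAK1 (GST-tagged, aa 850-1154) or His-tagged JAK2, baculovirus-expressed, phosphorylated 1 µM biotinylated TK peptide at Km ATP (JAK1 7 µM, 10 mM MgCl2, 50 nM SEB; JAK2 4 µM, 5 mM MgCl2) in pH 7.0 Hepes, 20-30 min RT. EDTA stop; overnight streptavidin-XL665/cryptate HTRF read.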

JAK2 = biological target: T2, JAK2 (Homo sapiens, UniProt O60674); experiment: JAK kinase assay (HTRF, phosphorylation of synthetic peptide), JAK2; details: catalytic domain, ATP at Km (4 μM); read-out: JAK2 kinase inhibitory activity (EC50)
T2 construct: All four purified enzymes contain only the catalytic domain; His (N); purchased Carna Biosciences, Inc; host or cells: baculovirus expression system
T2 sequence (O60674 849-1124 limits assumed): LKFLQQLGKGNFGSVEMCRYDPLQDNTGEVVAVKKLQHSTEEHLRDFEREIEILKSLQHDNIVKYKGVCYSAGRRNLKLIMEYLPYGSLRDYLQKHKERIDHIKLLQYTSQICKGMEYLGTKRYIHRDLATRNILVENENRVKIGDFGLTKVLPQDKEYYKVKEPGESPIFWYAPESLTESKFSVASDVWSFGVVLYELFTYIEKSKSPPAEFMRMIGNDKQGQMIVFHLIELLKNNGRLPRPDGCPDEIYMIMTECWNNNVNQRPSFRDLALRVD
In short: as §1

JAK3 = biological target: T3, JAK3 (Homo sapiens, UniProt P52333); experiment: JAK kinase assay (HTRF, phosphorylation of synthetic peptide), JAK3; details: catalytic domain, ATP at Km (2 μM); read-out: JAK3 kinase inhibitory activity (EC50)
T3 construct: All four purified enzymes contain only the catalytic domain; His (N); purchased Carna Biosciences, Inc; host or cells: baculovirus expression system
T3 sequence (P52333 822-1111 limits assumed): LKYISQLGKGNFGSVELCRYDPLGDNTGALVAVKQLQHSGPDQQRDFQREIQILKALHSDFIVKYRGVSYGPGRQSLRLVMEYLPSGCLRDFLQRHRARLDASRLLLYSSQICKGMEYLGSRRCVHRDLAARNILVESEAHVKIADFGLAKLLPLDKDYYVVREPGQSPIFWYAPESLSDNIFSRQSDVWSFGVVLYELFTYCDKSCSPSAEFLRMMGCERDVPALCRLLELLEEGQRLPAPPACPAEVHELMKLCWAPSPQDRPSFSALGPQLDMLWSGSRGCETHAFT

TYK2 = biological target: T4, TYK2 (Homo sapiens, UniProt P29597); experiment: JAK kinase assay (HTRF, phosphorylation of synthetic peptide), TYK2; details: catalytic domain, ATP at Km (13 μM); read-out: TYK2 kinase inhibitory activity (EC50)
T4 construct: JAK1 (aa 850-1154) and TYK2 (aa 871-1187) are expressed with an N-terminally fused GST-tag; GST (N); purchased Carna Biosciences, Inc; host or cells: baculovirus expression system
T4 sequence (P29597 871-1187): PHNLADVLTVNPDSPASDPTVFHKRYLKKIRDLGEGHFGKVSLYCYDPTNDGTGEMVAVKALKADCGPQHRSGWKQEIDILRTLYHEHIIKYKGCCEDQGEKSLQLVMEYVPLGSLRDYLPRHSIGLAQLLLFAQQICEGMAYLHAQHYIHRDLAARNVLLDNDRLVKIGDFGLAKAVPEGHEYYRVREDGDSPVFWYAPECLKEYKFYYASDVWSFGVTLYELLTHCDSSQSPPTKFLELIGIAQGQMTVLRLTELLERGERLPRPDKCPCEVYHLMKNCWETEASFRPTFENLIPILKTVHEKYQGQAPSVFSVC
In short: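 1 µM biotinylated TK peptide at Km ATP in pH 7.0 Hepes, 20-30 min RT. EDTA stop; overnight streptavidin-XL665/cryptate HTRF read.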

Structure (SMILES) | EC50 (JAK1) | EC50 (JAK2) | EC50 (JAK3) | EC50 (TYK2)
CN(CCOc1ccc(Cl)cc1)S(=O)(=O)N1CCN(c2ncnc3[nH]ccc23)CC12CC2 [Example 69, N-[2-(4-chlorophenoxy)ethyl]-N-methyl-5-(7H-pyrrolo[2,3-d]pyrimidin-4-yl)-5,8-diazaspiro[2.5]octane-8-sulfonamide] | < 0.1 µM | < 0.1 µM | 0.1 to 0.5 µM | > 0.5 µM
O=S(=O)(NOCc1ccccc1)N1CCN(c2ncnc3[nH]ccc23)CC12CC2 [Int 46] | < 0.1 µM | < 0.1 µM | 0.1 to 0.5 µM | 0.1 to 0.5 µM
CN(c1ccccc1)S(=O)(=O)N1CCN(c2ncnc3[nH]ccc23)CC12CC2 [Example 40, 7-(7H-Pyrrolo[2,3-d]pyrimidin-4-yl)-4,7-diaza-spiro[2.5]octane-4-sulfonic acid methyl-phenyl-amide] | < 0.1 µM | < 0.1 µM | 0.1 to 0.5 µM | 0.1 to 0.5 µM
CN(C(=O)CC1CCS(=O)(=O)C1)S(=O)(=O)N1CCN(c2ncnc3[nH]ccc23)CC12CC2 (stereo not drawn) [Example 138, 2-(1,1-dioxothiolan-3-yl)-N-methyl-N-[[5-(7H-pyrrolo[2,3-d]pyrimidin-4-yl)-5,8-diazaspiro[2.5]octan-8-yl]sulfonyl]acetamide] | < 0.1 µM | < 0.1 µM | 0.1 to 0.5 µM | > 0.5 µM
O=S1(=O)CCC(CNS(=O)(=O)N2CCN(c3ncnc4[nH]ccc34)CC23CC3)C1 (stereo not drawn) [Int 37] | < 0.1 µM | < 0.1 µM | < 0.1 µM | > 0.5 µM
CN(Cc1ccccc1C#N)S(=O)(=O)N1CCN(c2ncnc3[nH]ccc23)CC12CC2 [Example 14, 7-(7H-Pyrrolo[2,3-d]pyrimidin-4-yl)-4,7-diaza-spiro[2.5]octane-4-sulfonic acid (2-cyano-benzyl)-methyl-amide] | < 0.1 µM | < 0.1 µM | 0.1 to 0.5 µM | < 0.1 µM
O=S(=O)(N(CCc1ccccc1)CCc1cccc(F)c1)N1CCN(c2ncnc3[nH]ccc23)CC12CC2 [Example 48, 7-(7H-Pyrrolo[2,3-d]pyrimidin-4-yl)-4,7-diaza-spiro[2.5]octane-4-sulfonic acid [2-(3-fluoro-phenyl)-ethyl]-phenethyl-amide] | 0.1 to 0.5 µM | 0.1 to 0.5 µM | > 0.5 µM | > 0.5 µM
O=S(=O)(NC1CCCC1)N1CCN(c2ncnc3[nH]ccc23)CC12CC2 [Example 144, N-cyclopentyl-5-(7H-pyrrolo[2,3-d]pyrimidin-4-yl)-5,8-diazaspiro[2.5]octane-8-sulfonamide] | < 0.1 µM | < 0.1 µM | 0.1 to 0.5 µM | 0.1 to 0.5 µM
CN(OCc1ccccc1)S(=O)(=O)N1CCN(c2ncnc3[nH]ccc23)CC12CC2 [Example 174, N-benzyloxy-N-methyl-5-(7H-pyrrolo[2,3-d]pyrimidin-4-yl)-5,8-diazaspiro[2.5]octane-8-sulfonamide] | < 0.1 µM | < 0.1 µM | 0.1 to 0.5 µM | 0.1 to 0.5 µM
O=S(=O)(N(CCO)C1COC1)N1CCN(c2ncnc3[nH]ccc23)CC12CC2 [Example 116, N-(2-hydroxyethyl)-N-(oxetan-3-yl)-5-(7H-pyrrolo[2,3-d]pyrimidin-4-yl)-5,8-diazaspiro[2.5]octane-8-sulfonamide] | < 0.1 µM | < 0.1 µM | 0.1 to 0.5 µM | > 0.5 µM
CN(C1CN(C(=O)CCO)C1)S(=O)(=O)N1CCN(c2ncnc3[nH]ccc23)CC12CC2 [Example 179, N-[1-(3-hydroxypropanoyl)azetidin-3-yl]-N-methyl-5-(7H-pyrrolo[2,3-d]pyrimidin-4-yl)-5,8-diazaspiro[2.5]octane-8-sulfonamide] | < 0.1 µM | < 0.1 µM | 0.1 to 0.5 µM | 0.1 to 0.5 µM
N#CCCCN(C1COC1)S(=O)(=O)N1CCN(c2ncnc3[nH]ccc23)CC12CC2 [Example 114, N-(3-cyanopropyl)-N-(oxetan-3-yl)-5-(7H-pyrrolo[2,3-d]pyrimidin-4-yl)-5,8-diazaspiro[2.5]octane-8-sulfonamide] | < 0.1 µM | < 0.1 µM | < 0.1 µM | < 0.1 µM
O=CNS(=O)(=O)N1CCN(c2ncnc3[nH]ccc23)CC12CC2 [Example 176, N-[[5-(7H-pyrrolo[2,3-d]pyrimidin-4-yl)-5,8-diazaspiro[2.5]octan-8-yl]sulfonyl]formamide] | < 0.1 µM | < 0.1 µM | 0.1 to 0.5 µM | > 0.5 µM
CNS(=O)(=O)N1CCN(c2ncnc3[nH]ccc23)CC12CC2 [Int 3] | < 0.1 µM | < 0.1 µM | < 0.1 µM | 0.1 to 0.5 µM
CN(Cc1ccc(C#N)cc1)S(=O)(=O)N1CCN(c2ncnc3[nH]ccc23)CC12CC2 [Example 37, 7-(7H-Pyrrolo[2,3-d]pyrimidin-4-yl)-4,7-diaza-spiro[2.5]octane-4-sulfonic acid (4-cyano-benzyl)-methyl-amide] | < 0.1 µM | < 0.1 µM | < 0.1 µM | 0.1 to 0.5 µM
CN(C(=O)CC1CCS(=O)(=O)CC1)S(=O)(=O)N1CCN(c2ncnc3[nH]ccc23)CC12CC2 [Example 136, 2-(1,1-dioxothian-4-yl)-N-methyl-N-[[5-(7H-pyrrolo[2,3-d]pyrimidin-4-yl)-5,8-diazaspiro[2.5]octan-8-yl]sulfonyl]acetamide] | < 0.1 µM | < 0.1 µM | 0.1 to 0.5 µM | > 0.5 µM
CN(Cc1ccno1)S(=O)(=O)N1CCN(c2ncnc3[nH]ccc23)CC12CC2 [Example 68, N-(isoxazol-5-ylmethyl)-N-methyl-5-(7H-pyrrolo[2,3-d]pyrimidin-4-yl)-5,8-diazaspiro[2.5]octane-8-sulfonamide] | < 0.1 µM | < 0.1 µM | < 0.1 µM | 0.1 to 0.5 µM

Results, then the compound that gave them:

EC50 (JAK1) | EC50 (JAK2) | EC50 (JAK3) | EC50 (TYK2) | Structure (SMILES)
0.1 to 0.5 µM | < 0.1 µM | 0.1 to 0.5 µM | > 0.5 µM | O=S(=O)(N(CCc1ccccc1)CC1CCC1)N1CCN(c2ncnc3[nH]ccc23)CC12CC2 [Example 3, 7-(7H-Pyrrolo[2,3-d]pyrimidin-4-yl)-4,7-diaza-spiro[2.5]octane-4-sulfonic acid cyclobutyl methyl-phenethyl-amide]
< 0.1 µM | < 0.1 µM | < 0.1 µM | 0.1 to 0.5 µM | CN(C)S(=O)(=O)N1CCN(c2ncnc3[nH]ccc23)CC12CC2 [Example 45, 7-(7H-Pyrrolo[2,3-d]pyrimidin-4-yl)-4,7-diaza-spiro[2.5]octane-4-sulfonic acid dimethylamide]
< 0.1 µM | < 0.1 µM | < 0.1 µM | 0.1 to 0.5 µM | N#CCCCN(CCCC#N)S(=O)(=O)N1CCN(c2ncnc3[nH]ccc23)CC12CC2 [Example 56, 7-(7H-Pyrrolo[2,3-d]pyrimidin-4-yl)-4,7-diaza-spiro[2.5]octane-4-sulfonic acid bis-(3-cyano-propyl)-amide]
< 0.1 µM | < 0.1 µM | < 0.1 µM | 0.1 to 0.5 µM | N#CCCN(CC1CCCO1)S(=O)(=O)N1CCN(c2ncnc3[nH]ccc23)CC12CC2 (stereo not drawn) [Example 142, N-(2-cyanoethyl)-5-(7H-pyrrolo[2,3-d]pyrimidin-4-yl)-N-(tetrahydrofuran-2-ylmethyl)-5,8-diazaspiro[2.5]octane-8-sulfonamide]
< 0.1 µM | < 0.1 µM | 0.1 to 0.5 µM | 0.1 to 0.5 µM | CN(CCO)S(=O)(=O)N1CCN(c2ncnc3[nH]ccc23)CC12CC2 [Example 109, N-(2-hydroxyethyl)-N-methyl-5-(7H-pyrrolo[2,3-d]pyrimidin-4-yl)-5,8-diazaspiro[2.5]octane-8-sulfonamide]
< 0.1 µM | < 0.1 µM | 0.1 to 0.5 µM | 0.1 to 0.5 µM | CN(CCC1CCCC1)S(=O)(=O)N1CCN(c2ncnc3[nH]ccc23)CC12CC2 [Example 74, N-(2-cyclopentylethyl)-N-methyl-5-(7H-pyrrolo[2,3-d]pyrimidin-4-yl)-5,8-diazaspiro[2.5]octane-8-sulfonamide]
< 0.1 µM | < 0.1 µM | 0.1 to 0.5 µM | > 0.5 µM | CN(CC1CCN(C(=O)CCC#N)C1)S(=O)(=O)N1CCN(c2ncnc3[nH]ccc23)CC12CC2 (stereo not drawn) [Example 126, N-[[1-(3-cyanopropanoyl)pyrrolidin-3-yl]methyl]-N-methyl-5-(7H-pyrrolo[2,3-d]pyrimidin-4-yl)-5,8-diazaspiro[2.5]octane-8-sulfonamide]
